Publication PMC4858680, “A platinum-based hybrid drug design approach to circumvent acquired resistance to molecular targeted tyrosine kinase inhibitors” (Scientific Reports, 2016)
Where two headings read alike, the source gives them in different places.

Legend:
HCK = molecular target: T1, HCK (Homo sapiens, UniProt P08631); format: binding; conditions: 10 μM
T1 construct: purchased DiscoveRx KINOMEscan

ALK = ALK (Homo sapiens, UniProt Q9UM73); conditions: 10 μM
FLT3(D835Y) = molecular target: T2, FLT3(D835Y) (Homo sapiens, UniProt P36888, D835Y)
T2 sequence (P36888 27-993 D835Y): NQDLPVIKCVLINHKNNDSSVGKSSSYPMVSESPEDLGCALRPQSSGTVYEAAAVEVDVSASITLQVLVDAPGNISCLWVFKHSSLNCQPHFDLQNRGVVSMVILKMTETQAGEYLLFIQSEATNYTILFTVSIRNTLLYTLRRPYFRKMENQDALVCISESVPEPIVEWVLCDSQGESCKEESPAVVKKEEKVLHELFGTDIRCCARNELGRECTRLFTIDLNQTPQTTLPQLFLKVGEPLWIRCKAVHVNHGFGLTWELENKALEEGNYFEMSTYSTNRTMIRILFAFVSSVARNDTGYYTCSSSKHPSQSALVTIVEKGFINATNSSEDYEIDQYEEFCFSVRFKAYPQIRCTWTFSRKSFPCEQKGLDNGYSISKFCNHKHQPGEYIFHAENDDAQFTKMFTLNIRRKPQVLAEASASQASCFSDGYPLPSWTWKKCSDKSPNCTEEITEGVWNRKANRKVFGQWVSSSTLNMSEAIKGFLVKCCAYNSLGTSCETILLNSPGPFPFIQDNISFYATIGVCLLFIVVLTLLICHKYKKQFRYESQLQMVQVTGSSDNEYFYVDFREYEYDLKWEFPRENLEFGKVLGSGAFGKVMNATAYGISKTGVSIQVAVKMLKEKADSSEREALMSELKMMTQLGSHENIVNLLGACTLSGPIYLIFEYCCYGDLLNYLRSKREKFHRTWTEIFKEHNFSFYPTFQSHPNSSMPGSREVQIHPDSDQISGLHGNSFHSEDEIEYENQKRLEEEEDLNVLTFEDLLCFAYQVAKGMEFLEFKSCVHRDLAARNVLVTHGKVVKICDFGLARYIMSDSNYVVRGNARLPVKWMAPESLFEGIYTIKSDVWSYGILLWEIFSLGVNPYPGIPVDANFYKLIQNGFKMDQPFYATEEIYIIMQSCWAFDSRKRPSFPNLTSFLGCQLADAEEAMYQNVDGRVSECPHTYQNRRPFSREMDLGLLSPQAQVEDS

EPHB2 = molecular target: T3, EPHB2 (Homo sapiens, UniProt P29323); assay: biochemical; conditions: read-out: Percent control
T3 sequence (P29323 19-1055): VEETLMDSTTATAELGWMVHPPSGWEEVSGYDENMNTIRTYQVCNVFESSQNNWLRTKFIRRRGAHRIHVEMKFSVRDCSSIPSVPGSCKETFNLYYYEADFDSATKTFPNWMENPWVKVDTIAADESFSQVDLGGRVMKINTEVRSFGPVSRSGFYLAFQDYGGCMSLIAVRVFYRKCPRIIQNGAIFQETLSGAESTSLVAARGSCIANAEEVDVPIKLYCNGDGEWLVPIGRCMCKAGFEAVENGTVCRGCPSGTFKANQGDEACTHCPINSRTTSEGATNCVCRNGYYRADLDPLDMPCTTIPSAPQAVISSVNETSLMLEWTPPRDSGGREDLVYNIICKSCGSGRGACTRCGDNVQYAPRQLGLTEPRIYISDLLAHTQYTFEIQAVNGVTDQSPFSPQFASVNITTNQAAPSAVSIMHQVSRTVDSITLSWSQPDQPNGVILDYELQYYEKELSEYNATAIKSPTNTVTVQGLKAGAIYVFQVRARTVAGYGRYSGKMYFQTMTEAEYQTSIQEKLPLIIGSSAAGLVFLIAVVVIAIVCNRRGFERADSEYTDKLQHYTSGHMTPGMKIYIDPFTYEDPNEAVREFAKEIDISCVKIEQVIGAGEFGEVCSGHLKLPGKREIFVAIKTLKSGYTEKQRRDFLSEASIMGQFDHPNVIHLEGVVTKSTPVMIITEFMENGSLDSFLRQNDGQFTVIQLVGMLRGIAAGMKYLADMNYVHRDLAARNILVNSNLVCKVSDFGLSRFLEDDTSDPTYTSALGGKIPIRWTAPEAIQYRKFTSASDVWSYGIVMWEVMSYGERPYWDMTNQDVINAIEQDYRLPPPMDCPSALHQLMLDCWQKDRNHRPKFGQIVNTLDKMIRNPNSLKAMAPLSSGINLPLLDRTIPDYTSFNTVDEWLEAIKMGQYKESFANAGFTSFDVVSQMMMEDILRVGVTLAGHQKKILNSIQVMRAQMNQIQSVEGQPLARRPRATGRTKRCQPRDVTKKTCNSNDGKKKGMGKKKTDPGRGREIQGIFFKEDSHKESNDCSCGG

EPHA5 = EPHA5 (Homo sapiens, UniProt P54756); conditions: 10 μM
KIT(L576P) = KIT(L576P) (Homo sapiens, UniProt P10721, L576P); conditions: 10 μM
CSK = CSK (Homo sapiens, UniProt P41240); conditions: 10 μM
KIT(A829P) = KIT(A829P) (Homo sapiens, UniProt P10721, A829P); conditions: 10 μM
H292 = assay: Anticancer activity (cytotoxicity) in NSCLC cell line; format: cell-based
[1] = NSCLC, EGFR wild type, read-out: Anticancer activity (IC50) H292
[2] = Homo sapiens, NCI-H292, read-out: Anticancer activity (IC50) H292

Sequence of KIT(A829P) (P10721 26-976 A829P): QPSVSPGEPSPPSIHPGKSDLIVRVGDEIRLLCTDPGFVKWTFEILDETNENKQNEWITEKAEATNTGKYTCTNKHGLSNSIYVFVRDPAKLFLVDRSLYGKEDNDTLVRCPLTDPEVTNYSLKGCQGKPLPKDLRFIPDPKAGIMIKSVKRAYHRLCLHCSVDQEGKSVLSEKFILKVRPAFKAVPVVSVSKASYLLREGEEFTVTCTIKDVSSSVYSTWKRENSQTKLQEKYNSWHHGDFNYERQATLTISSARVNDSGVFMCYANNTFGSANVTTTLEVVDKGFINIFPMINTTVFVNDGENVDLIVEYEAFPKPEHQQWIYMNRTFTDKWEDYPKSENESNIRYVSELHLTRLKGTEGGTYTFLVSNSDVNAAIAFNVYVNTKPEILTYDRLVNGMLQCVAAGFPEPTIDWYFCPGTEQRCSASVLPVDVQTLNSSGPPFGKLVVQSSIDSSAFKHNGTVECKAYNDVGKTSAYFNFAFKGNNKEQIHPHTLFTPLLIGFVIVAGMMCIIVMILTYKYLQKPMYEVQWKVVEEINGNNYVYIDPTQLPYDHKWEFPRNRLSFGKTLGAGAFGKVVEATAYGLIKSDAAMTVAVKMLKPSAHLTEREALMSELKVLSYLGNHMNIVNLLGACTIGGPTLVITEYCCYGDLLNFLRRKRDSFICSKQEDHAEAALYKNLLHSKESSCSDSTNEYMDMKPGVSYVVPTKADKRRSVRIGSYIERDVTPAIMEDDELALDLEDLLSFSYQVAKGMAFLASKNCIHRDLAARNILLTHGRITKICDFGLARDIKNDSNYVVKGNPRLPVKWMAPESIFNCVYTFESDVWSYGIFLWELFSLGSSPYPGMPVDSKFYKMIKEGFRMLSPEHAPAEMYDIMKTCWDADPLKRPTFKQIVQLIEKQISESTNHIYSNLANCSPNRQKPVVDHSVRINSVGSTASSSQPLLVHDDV
Sequence of EPHA5 (P54756 25-1037): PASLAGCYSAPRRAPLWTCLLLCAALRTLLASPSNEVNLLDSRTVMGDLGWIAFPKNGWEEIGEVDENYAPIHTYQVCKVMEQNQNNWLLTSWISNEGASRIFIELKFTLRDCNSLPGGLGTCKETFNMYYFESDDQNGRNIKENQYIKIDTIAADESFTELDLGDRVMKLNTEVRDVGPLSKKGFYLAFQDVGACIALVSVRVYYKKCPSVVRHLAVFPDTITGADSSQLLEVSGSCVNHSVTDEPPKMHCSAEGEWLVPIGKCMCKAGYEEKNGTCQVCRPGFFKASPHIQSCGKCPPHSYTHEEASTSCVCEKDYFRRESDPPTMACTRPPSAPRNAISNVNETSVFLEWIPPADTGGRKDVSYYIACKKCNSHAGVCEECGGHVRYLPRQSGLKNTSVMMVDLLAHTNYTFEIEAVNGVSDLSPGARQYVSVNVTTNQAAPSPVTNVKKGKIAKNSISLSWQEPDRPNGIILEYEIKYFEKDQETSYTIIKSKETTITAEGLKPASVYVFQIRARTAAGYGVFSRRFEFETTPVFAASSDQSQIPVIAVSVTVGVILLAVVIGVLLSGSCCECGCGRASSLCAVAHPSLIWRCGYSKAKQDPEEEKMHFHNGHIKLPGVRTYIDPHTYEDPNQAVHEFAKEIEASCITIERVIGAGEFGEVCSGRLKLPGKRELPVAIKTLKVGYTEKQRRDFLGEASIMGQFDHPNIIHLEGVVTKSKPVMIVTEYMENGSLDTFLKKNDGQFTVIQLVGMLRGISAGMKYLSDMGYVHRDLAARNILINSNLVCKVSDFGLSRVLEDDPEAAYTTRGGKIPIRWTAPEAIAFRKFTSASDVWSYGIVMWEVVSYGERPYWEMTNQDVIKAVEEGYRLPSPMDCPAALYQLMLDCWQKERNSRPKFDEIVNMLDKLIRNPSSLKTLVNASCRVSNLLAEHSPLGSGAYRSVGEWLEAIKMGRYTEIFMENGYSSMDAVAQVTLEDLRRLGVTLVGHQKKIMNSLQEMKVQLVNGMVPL
Sequence of CSK (P41240 whole entry): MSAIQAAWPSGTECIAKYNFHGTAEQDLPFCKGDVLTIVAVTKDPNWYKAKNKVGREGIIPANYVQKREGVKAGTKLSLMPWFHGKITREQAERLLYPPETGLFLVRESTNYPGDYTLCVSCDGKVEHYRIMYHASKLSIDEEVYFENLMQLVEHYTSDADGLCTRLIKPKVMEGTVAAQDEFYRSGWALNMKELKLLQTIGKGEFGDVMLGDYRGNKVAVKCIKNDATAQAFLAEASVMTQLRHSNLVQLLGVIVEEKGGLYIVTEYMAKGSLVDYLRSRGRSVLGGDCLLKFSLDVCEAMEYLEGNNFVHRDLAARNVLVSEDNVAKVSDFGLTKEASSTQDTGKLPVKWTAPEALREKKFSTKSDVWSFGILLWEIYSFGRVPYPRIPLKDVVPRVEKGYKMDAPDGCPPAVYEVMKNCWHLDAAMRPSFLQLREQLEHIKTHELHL
T1 sequence (P08631 whole entry): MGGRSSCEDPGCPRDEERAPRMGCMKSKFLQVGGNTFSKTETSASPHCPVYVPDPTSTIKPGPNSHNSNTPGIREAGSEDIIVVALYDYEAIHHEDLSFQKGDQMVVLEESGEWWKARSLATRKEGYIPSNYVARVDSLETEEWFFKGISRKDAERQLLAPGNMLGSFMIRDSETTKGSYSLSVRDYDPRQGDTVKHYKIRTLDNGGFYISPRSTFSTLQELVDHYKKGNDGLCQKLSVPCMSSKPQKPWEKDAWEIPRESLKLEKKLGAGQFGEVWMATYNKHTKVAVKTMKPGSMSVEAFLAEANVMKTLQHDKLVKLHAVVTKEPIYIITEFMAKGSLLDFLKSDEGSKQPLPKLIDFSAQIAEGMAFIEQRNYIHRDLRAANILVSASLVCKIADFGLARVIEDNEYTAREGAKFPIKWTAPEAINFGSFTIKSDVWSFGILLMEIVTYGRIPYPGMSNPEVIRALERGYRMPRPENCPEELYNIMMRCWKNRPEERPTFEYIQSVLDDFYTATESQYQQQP
Sequence of ALK (Q9UM73 19-1620): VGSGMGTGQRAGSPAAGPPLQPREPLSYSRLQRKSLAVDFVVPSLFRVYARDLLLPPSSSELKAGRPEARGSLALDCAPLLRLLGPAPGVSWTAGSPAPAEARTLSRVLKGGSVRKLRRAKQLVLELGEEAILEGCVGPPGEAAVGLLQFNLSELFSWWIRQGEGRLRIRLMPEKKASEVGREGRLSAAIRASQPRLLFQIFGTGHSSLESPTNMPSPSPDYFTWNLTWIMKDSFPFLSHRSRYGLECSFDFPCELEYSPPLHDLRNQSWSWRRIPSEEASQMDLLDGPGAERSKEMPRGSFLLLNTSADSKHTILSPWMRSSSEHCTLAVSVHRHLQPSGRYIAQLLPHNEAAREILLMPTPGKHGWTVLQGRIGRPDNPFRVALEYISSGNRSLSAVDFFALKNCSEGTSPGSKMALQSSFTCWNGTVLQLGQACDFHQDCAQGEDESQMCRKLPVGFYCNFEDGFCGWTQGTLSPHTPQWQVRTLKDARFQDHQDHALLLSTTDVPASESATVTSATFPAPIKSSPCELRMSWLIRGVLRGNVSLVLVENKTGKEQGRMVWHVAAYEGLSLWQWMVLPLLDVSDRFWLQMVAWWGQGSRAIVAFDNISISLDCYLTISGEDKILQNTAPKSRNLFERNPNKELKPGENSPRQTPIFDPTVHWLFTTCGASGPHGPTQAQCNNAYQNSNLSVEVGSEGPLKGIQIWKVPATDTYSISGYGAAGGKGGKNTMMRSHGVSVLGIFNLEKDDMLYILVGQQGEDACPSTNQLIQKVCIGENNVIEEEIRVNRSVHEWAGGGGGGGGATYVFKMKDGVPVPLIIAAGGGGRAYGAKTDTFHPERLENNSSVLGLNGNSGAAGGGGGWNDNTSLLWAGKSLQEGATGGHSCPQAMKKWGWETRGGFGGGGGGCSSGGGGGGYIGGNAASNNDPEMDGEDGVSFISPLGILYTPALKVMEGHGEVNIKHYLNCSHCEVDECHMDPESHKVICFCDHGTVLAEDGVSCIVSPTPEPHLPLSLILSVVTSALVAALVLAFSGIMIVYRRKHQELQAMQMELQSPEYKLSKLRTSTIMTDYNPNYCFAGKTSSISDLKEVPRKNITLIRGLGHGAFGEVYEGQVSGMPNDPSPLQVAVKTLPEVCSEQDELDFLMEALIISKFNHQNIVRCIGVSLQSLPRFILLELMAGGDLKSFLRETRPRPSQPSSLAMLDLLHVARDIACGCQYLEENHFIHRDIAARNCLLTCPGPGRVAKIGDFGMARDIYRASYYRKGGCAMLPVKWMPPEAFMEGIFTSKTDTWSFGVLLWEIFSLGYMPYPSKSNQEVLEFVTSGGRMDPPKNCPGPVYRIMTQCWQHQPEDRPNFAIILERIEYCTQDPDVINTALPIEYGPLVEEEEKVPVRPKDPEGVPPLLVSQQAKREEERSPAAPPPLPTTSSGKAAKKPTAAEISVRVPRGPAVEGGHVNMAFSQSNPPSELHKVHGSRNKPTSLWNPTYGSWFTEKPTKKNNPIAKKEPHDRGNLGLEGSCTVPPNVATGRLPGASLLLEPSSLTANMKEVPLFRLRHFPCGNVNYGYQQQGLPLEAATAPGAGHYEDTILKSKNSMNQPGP
Sequence of KIT(L576P) (P10721 26-976 L576P): as the sequence (P10721 26-976 A829P) above, with L551P, P804A counted along it

Molecule `Cc1ccc(NC(=O)c2ccc(CN3CCN(C)CC3)cc2)cc1Nc1nccc(-c2cccnc2)n1` [Imatinib, reference compound] has a Percent control (HCK) of 100%, a Percent control (ALK) of 100% and a Percent control (FLT3(D835Y); FLT3(D835Y), 10 μM) of 100%. The remaining activity at 10 µM (EPHB2) was 100%.
`Cc1ccc(NC(=O)c2ccc(CN3CCN(C)CC3)cc2)cc1Nc1nccc(-c2cccnc2)[n+]1[Pt-2]1([Cl])[NH2+]C2CCCCC2[NH2+]1` (centres unmarked) [1b, oxaliplatin-imatinib] showed a Percent control (EPHA5) of 100%, a Percent control (HCK) of 82% and a Percent control (KIT(L576P)) of 0.9%. The Percent control (ALK) was 99%, the Percent control (FLT3(D835Y); FLT3(D835Y), 10 μM) was 81% and the Percent control (CSK) was 100%. For the same molecule, the Percent control (KIT(A829P)) was 5%.
With `COc1cc2c(Nc3ccc(Br)cc3F)[n+]([Pt-2]3([Cl])[NH2+]C4CCCCC4[NH2+]3)cnc2cc1OCC1CCN(C)CC1` (centres unmarked) [3b, oxaliplatin-vandetanib] the Percent control (EPHA5) was 78%, the Percent control (KIT(L576P)) was 2.2% and the IC50 (H292; [1]) was 9.32 ± 1.01 µM. For the same molecule, the Percent control (FLT3(D835Y)) was 46, the Percent control (CSK) was 41% and the Percent control (KIT(A829P)) was 2.7%.
Molecule `C#Cc1cccc(Nc2c3cc(OCCOC)c(OCCOC)cc3nc[n+]2[Pt@SP2-2]([NH3+])([NH3+])[Cl])c1` [2a, cisplatin-erlotinib] has a Percent control (EPHA5) of 100%, a Percent control (HCK) of 64% and a Percent control (KIT(L576P)) of 73%. For the same molecule, the IC50 (H292; [1]) was 3.27 ± 1.75 µM, the Percent control (ALK) was 79% and the Percent control (FLT3(D835Y)) was 21. For the same molecule, the Percent control (CSK) was 100% and the Percent control (KIT(A829P)) was 56%.
For `COc1cc2c(Nc3ccc(Br)cc3F)ncnc2cc1OCC1CCN(C)CC1` [Vandetanib, reference compound], the IC50 (H292; [2]) was 6.24 ± 0.94 µM and the remaining activity at 10 µM (EPHB2) was 4.2%.
`C#Cc1cccc(Nc2ncnc3cc(OCCOC)c(OCCOC)cc23)c1` [Erlotinib] showed an IC50 (H292; [2]) of 0.22 ± 0.12 µM and a remaining activity at 10 µM (EPHB2) of 100%.
